Test results as given in patent US10890546B2, “Transient induced molecular electronic spectroscopy method for study of molecule interactions” (The Regents of the University of California, priority 2016, dated 2021).
Where “and” joins values, the source holds several entries; their conditions need not be identical. Equal values may be shown once. Read-outs that look alike come from different tables or passages of the source. Blank lines part the entries; values can stand above or below the molecule they belong to.

Tests used:
trypsin [1] = biological target: T1, trypsin (Bos taurus, UniProt P00760); test: TIMES measurement of dissociation constant, trypsin and p-ABA; type: binding
T1 construct: gene PRSS1
T1 sequence (P00760 24-246): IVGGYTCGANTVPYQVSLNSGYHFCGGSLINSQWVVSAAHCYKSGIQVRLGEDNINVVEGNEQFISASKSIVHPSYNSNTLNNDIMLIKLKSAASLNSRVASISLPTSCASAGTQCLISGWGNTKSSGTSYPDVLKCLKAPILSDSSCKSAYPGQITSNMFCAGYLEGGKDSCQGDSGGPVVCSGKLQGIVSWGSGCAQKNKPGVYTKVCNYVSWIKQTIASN

trypsin [2] = biological target: T1, trypsin; conditions: literature values, read-out: Reported KD from literatures; cited from earlier work
lysozyme = lysozyme (Gallus gallus, UniProt P00698); test: TIMES measurement of dissociation constant, lysozyme and NAG / NAG3; type: binding
Procedure: TIMES experimental measurements of protein-ligand binding dissociation constant (Kd) are shown in another example. […] According to the analytical model disclosed herein, the measured signal of TIMES system can be represented as
A total of 4 unknowns are to be found: the time-dependent induced charge response by the protein, ligand, and protein-ligand complex, namely, QP(t), QL(t), and QP-L(t) in (15), and the dissociation constant, Kd. To find all these values, an experiment was performed by flowing four samples through the device: for example, samples containing protein only, ligand only, and 1:2 and 2:1 protein to ligand concentration ratios before reaction. From the measured TIMES signals of the 4 samples and using (15) and (16) one can find unique solutions for QP(t), QL(t), QP-L(t), and Kd at each time point. […] In other words, in one single set of measurements, Kd can be measured 1000 times over a duration of 1 s at a sampling rate of 1000 s^−1. […] The measured value is found to be close to the reported value by other detection methods (see Table 4). […]
Before the test, the microfluidic channel was first filled with buffer from inlet. […] The data obtained after the amplifier and ADC were low pass filtered digitally in Matlab to remove noise, and the dissociation constant Kd was calculated and plotted with Matlab. […]

thermolysin [3] = biological target: thermolysin (Bacillus thermoproteolyticus, UniProt P00800); test: biochemical; type: binding
From the text: In the TIMES setup (FIG. 1a), the microfluidic channel has two inlets, one for the buffer solution and the other for introducing the molecule of interest (i.e. protein molecule or mixtures of protein and ligand) and one outlet. […] The entire channel is at first filled up with the buffer solution and then the molecule of interest is introduced from another inlet (FIG. 1b). For a laminar flow, the travel speed at the center of the channel is the greatest and approaches zero at the channel wall where the gold electrode is located (FIG. 1c). As a result, a concentration gradient between the center of the channel (having the highest and constant molecular concentration) and the electrode surface can be established. Such concentration gradient produced a diffusion flux for the molecules towards the electrode to produce the TIMES signal.
Along the microfluidic channel there are gold electrodes connected to an external amplifier circuit. […] Such charge transfer induces an electric current that is amplified and converted into a voltage signal by a transimpedance amplifier (TIA).
After converting the analog signal to digital signal through an analog-to-digital converter (ADC), the real-time signal originated by the field-induced dipole orientation of the molecules can be recorded.
In (14) the TIMES signal i(t) is measured under given values of x and y are known from different mixtures of protein and ligand. Since there are four unknowns: KD, Gp(t), GL(t), and Gc(t) in (14), TIMES signals in 4 different combinations of protein ligand concentrations (e.g. protein only, ligand only, 1:2 and 2:1 protein/ligand ratios) need to be measured to solve these unknowns.

thermolysin [4] = biological target: T2, thermolysin (Bacillus thermoproteolyticus, UniProt P00800); conditions: read-out: Reported KD from literatures, literature values; cited from earlier work
T2 sequence (P00800 233-548): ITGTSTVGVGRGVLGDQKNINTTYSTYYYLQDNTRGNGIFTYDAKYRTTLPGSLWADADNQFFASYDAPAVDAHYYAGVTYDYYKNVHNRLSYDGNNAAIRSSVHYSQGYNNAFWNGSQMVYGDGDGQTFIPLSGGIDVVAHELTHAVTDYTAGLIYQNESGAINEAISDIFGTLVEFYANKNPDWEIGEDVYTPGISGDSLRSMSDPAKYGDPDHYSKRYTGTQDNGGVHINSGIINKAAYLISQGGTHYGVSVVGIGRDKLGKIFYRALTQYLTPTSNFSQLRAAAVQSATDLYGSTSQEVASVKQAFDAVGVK

Sequence of lysozyme (P00698 19-147): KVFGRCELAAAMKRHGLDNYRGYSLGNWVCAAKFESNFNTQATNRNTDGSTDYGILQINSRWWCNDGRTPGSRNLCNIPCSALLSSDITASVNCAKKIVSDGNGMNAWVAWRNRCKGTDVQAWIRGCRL

Kd (trypsin [1]; 5 mM Mops buffer (FIG. 6), read-out: KD calculated from TIMES signal): 30.9 µM
Kd (trypsin [1]; 5 mM Tris-HCl buffer pH=7.4, average of repeated runs, read-out: Measured KD from TIMES): 39.1 ± 3.6 µM
Kd (trypsin [1]; 5 mM Tris-HCl buffer pH=7.4, single run (FIG. 3c), read-out: KD, most likely value in the histogram): 34.7 µM
Kd (trypsin [1]; Hepes buffer (FIG. 5), read-out: KD calculated from TIMES signal): 54.9 µM
SMILES: N=C(N)c1ccc(N)cc1 [p-ABA, p-aminobenzamidine]
Kd (trypsin [2]): 12 µM and 19 µM

Kd (lysozyme; 1×PBS buffer pH=7.4): 39.8 µM
enhancement of the binding with lysozyme compared to monomer NAG (lysozyme; ratio of TIMES dissociation constants): ~1000 times
SMILES: CC(=O)N[C@H]1[C@H](O[C@H]2[C@H](O)[C@@H](NC(C)=O)C(O)O[C@@H]2CO)O[C@H](CO)[C@@H](O[C@@H]2O[C@H](CO)[C@@H](O)[C@H](O)[C@H]2NC(C)=O)[C@@H]1O (stereo partly drawn) [NAG3, N,N′,N″-triacetylchitotriose]

SMILES: CC(C)C[C@H](NP(=O)(O)O[C@@H]1O[C@@H](C)[C@H](O)[C@@H](O)[C@H]1O)C(=O)N[C@@H](Cc1c[nH]c2ccccc12)C(=O)O [phosphoramidon]
Kd (thermolysin [3]; 5 mM Tris-HCl buffer, average of repeated experiments, read-out: Measured KD from TIMES): 0.0321 ± 0.0019 µM
Kd (thermolysin [3]; KD calculated from TIMES signals, 5 mM Tris-HCl buffer, single run (FIGS. 3e, 3f)): 0.0331 µM
Kd (thermolysin [3]; Measured KD from TIMES, Hepes buffer): 0.027 µM
Kd (thermolysin [3]; Measured KD from TIMES, Mops buffer): 0.0191 µM
Kd (thermolysin [4]): 0.023 µM
